Reference: patent US7351688B2, “Compositions and methods for less immunogenic protein formulations” (The Research Foundation of State University of New York, priority 2003, dated 2008)

Test system: Hemophilia A mice
Experiment: Immunogenicity of simple complexes, subcutaneous: total antibody titers (ELISA) and inhibitory titers (Bethesda Units)
Conditions: mouse, in vivo, sc
Experimental: To illustrate this example, simple complexes were prepared with phosphoserine, phosphocholine or phaphatidic acid. Immunogenicity was tested by subcutaneous administration of the complexes in Hemophilia A mice.

phosphatidic acid
effect on immunogenicity (total antibody titers and inhibitory titers) versus rFVIII: not
